The structures appear in SMILES notation. ≈ marks a conversion by molar mass, not a printed value. Where “and” joins values, the source holds several entries; their conditions need not be identical. Equal values may be shown once. Some results are limits rather than exact numbers.

Consider nine molecules from patent US8236533B2, “Process for the production of γ-glutamylcysteine” (NewSouth Innovations PTY Limited, priority 2005, dated 2012).

A short description of one data set: isoelectric point (pI). In kind it is physicochemical.
Data set [1] can be described thus: physchem.
The next data set deals with glutathione levels. Nature of the data set: utilization of GGC in mice: glutathione levels. The data set is classed as in vivo. As to conditions: preliminary studies. The source says:
The final form of GGC, whether it be in the reduced state as γ-glutamylcysteine or in the disulphide form as bis-γ-glutamylcystine, is dependent on the final application of the dipeptide. […] The oxidised form bis-γ-glutamylcystine is more likely to be suitable for application as a nutraceutical supplement as no special precautions to prevent the oxidation of the sulphydryl, would be required, whereas application in the treatment of poisoning or as an antioxidant in food or cosmetics would require the reducing power of the sulphydryl of γ-glutamylcysteine. Whatever the desired form, both are relatively easily interconverted by reduction which can be achieved either chemically (Jocelyn, P. C., Chemical reduction of disulfides. Methods in Enzymology, 1987. 143: p. 246-56), electrochemically (Genders, J. D., N. L. Weinberg, and D. J. Mazur, High yield methods for electrochemical preparation of cysteine and analogues. 1988, U.S. Pat. No. 5,106,463. The Electrosynthesis Company, Inc.) or oxidized to the disulphide form simply by exposing a solution to air (oxygen) with a trace amount of copper or iron salt added to catalyse the reaction.

Data set [2] is described as follows: stability on removal of water by evaporation. As to conditions: temperatures above 40° C. The data set is classed as physicochemical. As to the method: Example 13 describes purification of GGC from a mixture comprising GGC and 2-mercaptoethanol, with subsequent freeze-drying. However, it is not expected that freeze drying would be an economic option at industrial scale. Removal of water by conventional evaporation at temperatures above 40° C. results in degradation of the product. However, a process of concentration by nanofiltration is expected to be most suitable at industrial scale as it is both low temperature and a cost effective method for water removal. […] After the removal of the majority of water by nanofiltration and a pH adjustment to the pH of the isoelectric point (GGC=pH 2.8) the addition of an antisolvent such as ethanol or acetone can be added to initiate spontaneous crystallization. The final product can be collected by filtration and dried under reduced pressure.

Data set [3] can be described thus: physchem. The following applies: pH 9.1, aqueous with cosolvent or surfactant or cyclodextrin, thermodynamic from solid.

In the case of `CCOC(=O)CC[C@H](N)C(=O)O` [GEE, glutamic acid γ-ethyl ester], in “isoelectric point (pI)”, the “isoelectric point (pI)” value amounted to 5.8.

Consider `COC(=O)[C@@H](N)CSSC[C@H](N)C(=O)OC.Cl.Cl` [CDME, cystine dimethyl ester dihydrochloride], for which the solubility in the data set “physchem [1]” was above 20000 µg/mL. Take `N[C@@H](CCC(=O)NC(CSSCCO)C(=O)O)C(=O)O` (stereo partly shown) [GGC-Merc, γ-glutamylcysteine-mercaptoethanol disulphide]: the “isoelectric point (pI)” value in the data set “isoelectric point (pI)” is on record as 3.0. `N[C@@H](CCC(=O)Nc1ccc([N+](=O)[O-])cc1)C(=O)O` [GPNA, L-γ-glutamyl-p-nitroanilide] registered a solubility limit in the data set “aqueous solubility” (pH 8.5 in 100 mM phosphate buffer) of 8.4 mM (≈ 2240 µg/mL).

Turning to `N[C@@H](CCC(=O)N[C@@H](CS)C(=O)O)C(=O)O` [GGC, γ-Glutamylcysteine], the “glutathione levels after administration” value with glutathione levels is on record as “significantly increase glutathione levels”. In “isoelectric point (pI)”, the “isoelectric point (pI)” value amounted to 2.8. The “stability on conventional evaporation of water” value in data set [2] is recorded as “degradation”. `N[C@@H](CSSC[C@H](N)C(=O)O)C(=O)O` [cystine]: the solubility in the data set “aqueous solubility” (aqueous solution, pH 3, aqueous buffer) is 100 µg/mL; in the data set “aqueous solubility” (phosphate buffer, pH 8.5, aqueous buffer), 16.6 mM; in “aqueous solubility” (water, 37 °C, pH 9.1, water), around 5000 µg/mL; in the data set “physchem [3]” (50% DMF in diethanolamine (DEA) buffer) it was around 30 mM; in “physchem [3]” (50% DMF in water), around 9000 µg/mL. On to `CC(=O)NCSC[C@H](N)C(=O)O` [S-acetamidomethylcysteine], for which the concentration in solution in “aqueous solubility” (water) (solubility) was 2000 mM. `N[C@@H](CCC(=O)N[C@@H](CSSC[C@H](NC(=O)CC[C@H](N)C(=O)O)C(=O)O)C(=O)O)C(=O)O` [bis-γ-glutamylcystine]: in the data set on glutathione levels, the “glutathione levels after administration” value is reported as “significantly increase glutathione levels”. In “aqueous solubility”, `N[C@@H](CSSCCO)C(=O)O` [Cys-Merc, cysteine-mercaptoethanol mixed disulphide] yielded an aqueous solubility of around 20000 µg/mL (≈ 101 mM). The “isoelectric point (pI)” value in the data set “isoelectric point (pI)” is 5.2 and 5.3.
